Our source for the EC50 values is patent US20250057866A1, “A SYNERGISTIC PHARMACEUTICAL COMPOSITION AND ITS ANTIVIRAL USE” (priority 2022, published 2025).

Usually EC50 stands for the concentration needed to bring the measured effect to its halfway point.

For this assay, the system named is virus (0.01 MOI) in Vero-E6 cells. Description: In vitro antiviral activity EC50 assay (CCK8, 48 h, 0.01 MOI virus in Vero-E6 cells). The format is cell-based. The note with it: combination mol./mol.=1/1, combined total concentration. How it is done: • 1) Vero-E6 cells were digested and passaged. The cells were adjusted to a density of 1×10^5 cells/mL with DMEM containing 10% FBS, then seeded in a 96-well plate (100 μl/well), and incubated in a 35° C., 6% CO2 incubator for 20 h; • 2) Compound 1 and Compound 2 (mol./mol.=1/1) were diluted with DMEM containing 1% FBS to provide compositions with combined total concentrations (Compound 1+Compound 2) of 200 μM, 60 μM, 20 μM, 6 μM, 2 μM, 0.6 μM, 0.2 μM, 0.06 μM, and 0.02 μM; • 3) The culture medium in each well was removed, and the 96-well plate was marked on its lid, washed three times with 1×PBS, and 100 μL of dilutions of the compositions prepared above was added to each well, followed by 100 μL of a 0.01 multiplicity of infection (MOI) virus solution, so as to obtain final combined total concentrations of the compounds (Compound 1+Compound 2) at 100 μM, 30 μM, 10 μM, 3 μM, 1 μM, 0.3 μM, 0.1 μM, 0.03 μM, 0.01 μM. The 96-well plate, including a cell control group and a virus control group, was then incubated in a 35° C., 6% CO2 incubator; • 4) After 48 h, the cell viability was tested with a CCK8 kit.

Like-named read-outs stand apart in the source and are kept apart here.

Consider `[2H]C1([2H])C[C@@H](C[C@@H](C#N)NC(=O)[C@@H]2[C@@H]3[C@H](CN2C(=O)[C@@H](NC(=O)C(F)(F)F)C(C)(C)C)C3(C)C)C(=O)N1` [Compound 1], for which the EC50 came to 1.72 µM (Vero C1008, 48 h) and 1.56 ± 0.576 µM (read-out: EC50).

For the molecule `[2H]C(OC(=O)C(C)C)[C@H]1O[C@@H](n2ccc(NO)nc2=O)[C@H](O)[C@@H]1O` (stereo partly drawn) [Compound 2, ((2R, 3S, 4R, 5R)-3,4-dihydroxy-5-(4-(hydroxylamino)-2-oxopyrimidin-1 (2H)-yl)tetrahydrofuran-2-yl) deuterated methyl isobutyl ester], the EC50 stood at 1.56 µM (Vero C1008, 48 h) and 1.72 ± 0.585 µM (read-out: EC50).
